Calls of active or inactive are those of the source.
What was measured:
[1] = Luminescence Cell-Based Dose Response HTS to Identify Activators of Luciferase Translation or Activity in H4 […] Cells. [Related pubchem assays: 1829 (Project Summary), 1814 (Primary HTS)]; format: functional
H4 = assay: Luminescence Cell-Based Dose Response HTS to Identify Activators of 5'UTR Stem-Loop Driven Prion Protein mRNA Translation in H4 Neuroglioblastoma Cells. [Related pubchem assays: 1829 (Project Summary), 1814 (Primary HTS)]; format: functional; conditions: Homo sapiens
Vero [2] = assay: host cell cytotoxicity of antiviral hits, dose response, cytotoxicity control for West Nile virus antiviral project, secondary assay (AID 1650); format: functional; conditions: Chlorocebus sabaeus
[3] = Luminescence Cell-Based Dose Retest to Confirm Inhibitors of Cancer Stem Cells. [Related pubchem assays (depositor defined):AID2717, AID2721]; format: functional; conditions: Homo sapiens
[4] = molecular target: T1, Replicative DNA helicase DnaB (Mycobacterium tuberculosis, UniProt P9WMR3); assay: DnaB intein splicing inhibitors, dose response, biochemical, cell-free fluorescence (AID 449749); format: functional
T1 sequence (P9WMR3 whole entry): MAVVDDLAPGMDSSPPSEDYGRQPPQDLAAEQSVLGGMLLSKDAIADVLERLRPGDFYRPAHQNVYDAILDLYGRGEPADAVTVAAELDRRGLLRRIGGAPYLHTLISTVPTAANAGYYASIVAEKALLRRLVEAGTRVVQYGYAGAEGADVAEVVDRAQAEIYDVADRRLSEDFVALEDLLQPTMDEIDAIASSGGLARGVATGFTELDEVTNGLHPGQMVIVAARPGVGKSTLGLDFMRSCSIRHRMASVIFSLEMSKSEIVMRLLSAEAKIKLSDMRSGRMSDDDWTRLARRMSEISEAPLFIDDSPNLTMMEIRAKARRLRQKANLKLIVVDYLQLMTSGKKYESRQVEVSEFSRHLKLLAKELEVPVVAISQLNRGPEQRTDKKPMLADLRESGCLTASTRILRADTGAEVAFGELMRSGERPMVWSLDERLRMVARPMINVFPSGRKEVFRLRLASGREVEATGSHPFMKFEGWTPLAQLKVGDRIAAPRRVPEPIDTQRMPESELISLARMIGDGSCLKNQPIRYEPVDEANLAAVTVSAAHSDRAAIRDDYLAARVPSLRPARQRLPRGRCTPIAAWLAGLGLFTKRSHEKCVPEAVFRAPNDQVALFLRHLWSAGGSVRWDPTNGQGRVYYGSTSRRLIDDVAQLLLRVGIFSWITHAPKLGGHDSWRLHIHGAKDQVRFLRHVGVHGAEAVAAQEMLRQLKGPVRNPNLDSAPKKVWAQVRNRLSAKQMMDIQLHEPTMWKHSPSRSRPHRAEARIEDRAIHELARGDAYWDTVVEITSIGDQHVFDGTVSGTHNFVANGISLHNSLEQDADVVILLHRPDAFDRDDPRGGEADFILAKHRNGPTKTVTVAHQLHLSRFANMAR

Vero [5] = assay: cells; format: functional, cell-based; conditions: Chlorocebus sabaeus
Protein RecA = molecular target: T2, Protein RecA (Mycobacterium tuberculosis, UniProt P9WHJ3); assay: Fluorescence Cell-Free Homogeneous Dose Retest to Identify Inhibitors of RecA-Intein Splicing Activity. [Related pubchem assays (depositor defined):AID2097, AID2223, AID489010, AID492950]; format: functional
T2 sequence (P9WHJ3 whole entry): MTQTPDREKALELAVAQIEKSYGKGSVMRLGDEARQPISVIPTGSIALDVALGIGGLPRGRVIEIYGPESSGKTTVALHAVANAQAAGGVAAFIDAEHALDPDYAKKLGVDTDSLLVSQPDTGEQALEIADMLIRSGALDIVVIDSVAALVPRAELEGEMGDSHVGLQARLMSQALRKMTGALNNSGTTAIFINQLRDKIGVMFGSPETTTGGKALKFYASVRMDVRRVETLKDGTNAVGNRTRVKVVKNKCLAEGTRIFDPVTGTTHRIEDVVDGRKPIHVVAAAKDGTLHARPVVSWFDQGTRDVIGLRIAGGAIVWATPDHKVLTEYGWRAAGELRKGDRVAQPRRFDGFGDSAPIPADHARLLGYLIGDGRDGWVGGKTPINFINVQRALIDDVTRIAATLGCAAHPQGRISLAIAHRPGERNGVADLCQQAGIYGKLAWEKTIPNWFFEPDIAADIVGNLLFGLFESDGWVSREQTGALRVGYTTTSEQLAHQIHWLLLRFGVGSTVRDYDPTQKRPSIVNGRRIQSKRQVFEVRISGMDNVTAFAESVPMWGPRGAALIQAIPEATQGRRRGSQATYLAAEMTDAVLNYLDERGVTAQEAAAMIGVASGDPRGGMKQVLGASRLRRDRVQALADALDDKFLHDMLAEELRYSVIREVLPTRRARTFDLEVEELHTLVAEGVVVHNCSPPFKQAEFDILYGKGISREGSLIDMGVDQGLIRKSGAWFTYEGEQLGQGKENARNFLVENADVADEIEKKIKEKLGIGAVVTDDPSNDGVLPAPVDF

INS1 = assay: beta cell apoptosis inhibitors, cytokine rescue, dose response, luminescence, retest (AID 449756); format: functional, cell-based; conditions: Rattus norvegicus;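 note: cell death triggered by IL-1 beta plus TNF-alpha plus IFN-gamma mixture; protective hits raise ATP signal compared with cytokine alone wells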
Vero [6] = assay: cells; format: functional; conditions: Chlorocebus sabaeus
[7] = A Cell-Based Counter Screen testing Compounds that Inhibit VEEV TC-83, in strain KU V3526.; format: functional
[8] = A Cell-Based Confirmatory Screen for Compounds that Inhibit VEEV, TC-83 (2).; format: functional

SMILES: Clc1ccc2nnnc(-c3ccccc3)c2c1
- EC50 [1]: 2.12 µM (active)
- EC50 (H4): > 120 µM (not active)
- CC50 (Vero [2]): 12.3 µM (active)
- AC50 [3]: 3.08 µM (active)
- AC50 [4]: 24.8 µM (active)
- IC50 (Vero [5]): 9.71 µM (active)
- EC50 (Protein RecA): 3.78 µM (active)
- AC50 (INS1): 7.81 µM (active)
- CC50 (Vero [6]): > 25 µM (active)
- IC50 [7]: 3.45 µM (active)
- IC50 [8]: 6.12 µM (active)
